Measurements from US9931320B2, “Parasiticidal oral veterinary compositions comprising systemically-acting active agents, methods and uses thereof” (MERIAL INC., priority 2012, dated 2018).

How the values were obtained:
Type in all cases: in vivo
[1] = tested on: fleas (Ctenocephalides felis); assay: Efficacy and speed of kill against fleas on dogs (Example 3)
Description: Three Treatment Groups were formed. Dogs in Group 1 were untreated. […] Groups 1 and 2 contained 12 dogs each and Group 3 contained 4 dogs. All dogs were treated once on Day 0.
All dogs were infested with approximately 75 C. felis on Days 0 and 7. The dogs in Group 3 and dogs in pre-allocated subgroups in Groups 1 and 2 were also infested with approximately 75 C. felis on Days 14, 21 and 28. Fleas were counted upon removal from selected subjects at 30 minutes, 4 hours, and 12 hours after treatment or infestation on Days 0 and 7. On Days 14, 21 and 28, fleas were counted upon removal from selected subjects at 8 and 12 hours after infestation. […] Following infestation at later timepoints, the composition started working within 30 minutes, and by 12 hours after infestation on Days 7, 14 and 21, efficacy of >98% was achieved.

[2] = tested on: fleas (Ctenocephalides felis); assay: Efficacy of soft chews against induced flea infestations on dogs (Example 2); settings: for % Reduction Fleas: soft chew of Table 6, once on Day 0, dogs; for Percent reduction (efficacy) against fleas: Table 6 soft chew, treated once on Day 0, dogs
Description: (§1) Sixteen beagles were studied to determine the effectiveness of a soft chewable veterinary composition comprising Compound A against induced infestations of Dermacentor variabilis and Ctenocephalides felis.
(§2) Four Treatment Groups containing four dogs each were formed. Dogs in Group 1 were untreated. […] All dogs were treated once on Day 0.
(§3) All dogs were infested with approximately 100 C. felis on Days −1, 8, 15, 22, 29, 35, 43, 57 and 71. All dogs were also infested with approximately 50 D. variabilis on Days −1, 7, 14, 21, 28, 34 and 42. Both ticks and fleas were counted upon removal on Days 2, 9, 16, 23, 30, 36 and 44. Fleas were counted upon removal for all Treatment Groups on Days 58 and 72.

Dermacentor variabilis = assay: Long lasting efficacy against D. variabilis on dogs (Example 6, Table 53)
Description: Forty two beagles were allotted to seven groups of six dogs each. Groups 1 and 2 served as untreated controls. Groups 3, 4 and 5 were each treated on Day 0 with three different compositions of the invention described in Tables 30, 31 and 32, respectively, containing Compound A in an amount to deliver a dose of about 20 mg/kg of body weight. Similarly, on Day 0, Groups 6 and 7 were each treated with the compositions described in Tables 30 and 32, respectively, containing Compound A to deliver a dose of about 20 mg/kg of body weight.
Dogs in Groups 1, 3, 4 and 5 were infested with approximately 50 A. americanum and dogs in Groups 2, 6 and 7 were infested with approximately 50 D. variabilis on Days −1, 42, 56, 70, 77, 84, 91 and 98. Dogs in Groups 1, 2, 3, 6 and 7 were also infested on Day 105. Ticks were counted upon removal at approximately 48 hours post treatment on Day 2 and 48 hours post infestation on Days 44, 58, 72, 79, 86, 93, 100 and 107. Tables 52 and 53 below show the exceptional long-lasting efficacy of the inventive compositions against A. americanum and D. variabilis.

[3] = tested on: ticks (Dermacentor variabilis); assay: Efficacy of soft chews against induced tick infestations on dogs (Example 2); settings: for % Reduction Ticks: soft chew of Table 6, once on Day 0, dogs; for Percent reduction against ticks: Table 6 soft chew, treated once on Day 0, dogs
Description: as §1, §2, §3

[4] = tested on: Amblyomma americanum (lone star tick); assay: Efficacy against induced Amblyomma americanum infestations on dogs (Example 4); settings: at least approx. 2.5 mg/kg once on Day 0
Description: Two treatment groups were formed, each containing eight dogs each. Dogs in Group 1 were untreated. Dogs in Group 2 were treated once on Day 0 with soft chewable compositions containing Compound A at a concentration to deliver a dose of at least approximately 2.5 mg/kg.
Ticks were counted on Days 2, 9, 16, 23, 30 and 38. The percent efficacy of the treated group versus the untreated control group 48 hours after infestation exceeded 91% at Days 2, 9, 16 and 23, with percent efficacy values of 99.2, 98.7, 99.4 and 91.7, respectively (p-values≤0.001). At Day 38 the percent efficacy was measured at 89.7%.

[5] = Group 2, approximately 1.5 mg/kg, Day 2
[6] = Group 2, approximately 1.5 mg/kg, Day 9
[7] = Group 2, approximately 1.5 mg/kg, Day 16
[8] = Group 2, approximately 1.5 mg/kg, Day 23
[9] = Group 2, approximately 1.5 mg/kg, Day 30
[10] = Group 2, approximately 1.5 mg/kg, Day 36
[11] = Group 2, approximately 1.5 mg/kg, Day 44
[12] = Group 3, approximately 2.5 mg/kg, Day 2
[13] = Group 3, approximately 2.5 mg/kg, Day 9
[14] = Group 3, approximately 2.5 mg/kg, Day 16
[15] = Group 3, approximately 2.5 mg/kg, Day 23
[16] = Group 3, approximately 2.5 mg/kg, Day 30
[17] = Group 3, approximately 2.5 mg/kg, Day 36
[18] = Group 3, approximately 2.5 mg/kg, Day 44
[19] = Group 4, approximately 3.5 mg/kg, Day 2
[20] = Group 4, approximately 3.5 mg/kg, Day 9
[21] = Group 4, approximately 3.5 mg/kg, Day 16
[22] = Group 4, approximately 3.5 mg/kg, Day 23
[23] = Group 4, approximately 3.5 mg/kg, Day 30
[24] = Group 4, approximately 3.5 mg/kg, Day 36
[25] = Group 4, approximately 3.5 mg/kg, Day 44
[26] = through and including Day 30, all treatment groups (approx. 1.5, 2.5 or 3.5 mg/kg)

O=C(CNC(=O)c1ccc(C2=NOC(c3cc(Cl)cc(C(F)(F)F)c3)(C(F)(F)F)C2)c2ccccc12)NCC(F)(F)F (stereo not shown) [Compound A, 4-[5-[3-chloro-5-(trifluoromethyl)phenyl]-4,5-dihydro-5-(trifluoromethyl)-3-isoxazolyl]-N-[2-oxo-2-[(2,2,2-trifluoroethyl)amino]ethyl]-1-naphthalenecarboxamide]
Flea efficacy ([1]; 12 hours after administration on Day 0, soft chews of Tables 7 and 8, approx. 2.5 mg/kg): 100% | Time until compositions started working against fleas ([1]; after treatment on Day 0, approx. 2.5 mg/kg): ≤ 30 min | Flea efficacy ([1]; by 12 hours after infestation on Days 7, 14 and 21, soft chews of Tables 7 and 8, approx. 2.5 mg/kg once on Day 0): > 98% | Time until composition started working against fleas ([1]; following infestation at later timepoints, approx. 2.5 mg/kg once on Day 0): ≤ 30 min | % Reduction Fleas [2, 5]: 100.0% | % Reduction Fleas [2, 6]: 100.0% | % Reduction Fleas [2, 7]: 100.0% | % Reduction Fleas [2, 8]: 100.0% | % Reduction Fleas [2, 9]: 100.0% | % Reduction Fleas [2, 10]: 99.2% | % Reduction Fleas [2, 11]: 97.8% | % Reduction Fleas ([2]; Group 2, approximately 1.5 mg/kg, Day 58): 89.4% | % Reduction Fleas ([2]; Group 2, approximately 1.5 mg/kg, Day 72): 79.6% | % Reduction Fleas [2, 12]: 100.0% | % Reduction Fleas [2, 13]: 100.0% | % Reduction Fleas [2, 14]: 100.0% | % Reduction Fleas [2, 15]: 100.0% | % Reduction Fleas [2, 16]: 100.0% | % Reduction Fleas [2, 17]: 100.0% | % Reduction Fleas [2, 18]: 99.3% | % Reduction Fleas ([2]; Group 3, approximately 2.5 mg/kg, Day 58): 96.7% | % Reduction Fleas ([2]; Group 3, approximately 2.5 mg/kg, Day 72): 94.4% | % Reduction Fleas [2, 19]: 100.0% | % Reduction Fleas [2, 20]: 100.0% | % Reduction Fleas [2, 21]: 100.0% | % Reduction Fleas [2, 22]: 100.0% | % Reduction Fleas [2, 23]: 100.0% | % Reduction Fleas [2, 24]: 99.6% | % Reduction Fleas [2, 25]: 98.3% | % Reduction Fleas ([2]; Group 4, approximately 3.5 mg/kg, Day 58): 95.2% | % Reduction Fleas ([2]; Group 4, approximately 3.5 mg/kg, Day 72): 80.6% | Percent reduction (efficacy) against fleas ([2]; through Day 44, all groups (approx. 1.5, 2.5 or 3.5 mg/kg)): above 95% | Percent reduction (efficacy) against fleas ([2]; through Day 58, Groups 3 and 4): above 95% | Percent reduction (efficacy) against fleas [2, 26]: 100% | % Reduction Ticks (Dermacentor variabilis; Group 6, composition of Table 30, about 20 mg/kg once on Day 0, dogs, Day 2): 100.0% | % Reduction Ticks (Dermacentor variabilis; Group 6, composition of Table 30, about 20 mg/kg once on Day 0, dogs, Day 44): 100.0% | % Reduction Ticks (Dermacentor variabilis; Group 6, composition of Table 30, about 20 mg/kg once on Day 0, dogs, Day 58): 99.5% | % Reduction Ticks (Dermacentor variabilis; Group 6, composition of Table 30, about 20 mg/kg once on Day 0, dogs, Day 72): 100.0% | % Reduction Ticks (Dermacentor variabilis; Group 6, composition of Table 30, about 20 mg/kg once on Day 0, dogs, Day 79): 98.8% | % Reduction Ticks (Dermacentor variabilis; Group 6, composition of Table 30, about 20 mg/kg once on Day 0, dogs, Day 86): 100.0% | % Reduction Ticks (Dermacentor variabilis; Group 6, composition of Table 30, about 20 mg/kg once on Day 0, dogs, Day 93): 98.9% | % Reduction Ticks (Dermacentor variabilis; Group 6, composition of Table 30, about 20 mg/kg once on Day 0, dogs, Day 100): 99.4% | % Reduction Ticks (Dermacentor variabilis; Group 6, composition of Table 30, about 20 mg/kg once on Day 0, dogs, Day 107): 99.4% | % Reduction Ticks (Dermacentor variabilis; Group 7, composition of Table 32, about 20 mg/kg once on Day 0, dogs, Day 2): 100.0% | % Reduction Ticks (Dermacentor variabilis; Group 7, composition of Table 32, about 20 mg/kg once on Day 0, dogs, Day 44): 100.0% | % Reduction Ticks (Dermacentor variabilis; Group 7, composition of Table 32, about 20 mg/kg once on Day 0, dogs, Day 58): 100.0% | % Reduction Ticks (Dermacentor variabilis; Group 7, composition of Table 32, about 20 mg/kg once on Day 0, dogs, Day 72): 100.0% | % Reduction Ticks (Dermacentor variabilis; Group 7, composition of Table 32, about 20 mg/kg once on Day 0, dogs, Day 79): 100.0% | % Reduction Ticks (Dermacentor variabilis; Group 7, composition of Table 32, about 20 mg/kg once on Day 0, dogs, Day 86): 100.0% | % Reduction Ticks (Dermacentor variabilis; Group 7, composition of Table 32, about 20 mg/kg once on Day 0, dogs, Day 93): 97.9% | % Reduction Ticks (Dermacentor variabilis; Group 7, composition of Table 32, about 20 mg/kg once on Day 0, dogs, Day 100): 100.0% | % Reduction Ticks (Dermacentor variabilis; Group 7, composition of Table 32, about 20 mg/kg once on Day 0, dogs, Day 107): 100.0% | % Reduction Ticks [3, 5]: 100.0% | % Reduction Ticks [3, 6]: 99.2% | % Reduction Ticks [3, 7]: 100.0% | % Reduction Ticks [3, 8]: 92.1% | % Reduction Ticks [3, 9]: 99.5% | % Reduction Ticks [3, 10]: 82.4% | % Reduction Ticks [3, 11]: 68.3% | % Reduction Ticks [3, 12]: 100.0% | % Reduction Ticks [3, 13]: 100.0% | % Reduction Ticks [3, 14]: 99.1% | % Reduction Ticks [3, 15]: 97.2% | % Reduction Ticks [3, 16]: 94.3% | % Reduction Ticks [3, 17]: 96.9% | % Reduction Ticks [3, 18]: 88.1% | % Reduction Ticks [3, 19]: 100.0% | % Reduction Ticks [3, 20]: 100.0% | % Reduction Ticks [3, 21]: 99.5% | % Reduction Ticks [3, 22]: 100.0% | % Reduction Ticks [3, 23]: 98.1% | % Reduction Ticks [3, 24]: 91.9% | % Reduction Ticks [3, 25]: 84.7% | Percent reduction against ticks ([3]; through Day 36, Groups 3 and 4): > 90% | Percent reduction against ticks [3, 26]: > 90% | Percent efficacy versus untreated control group ([4]; 48 hours after infestation, at Days 2, 9, 16 and 23, Table 10 soft chew): exceeded 91% | Percent efficacy versus untreated control group ([4]; Day 2, 48 hours after infestation, Table 10 soft chew): 99.2% | Percent efficacy versus untreated control group ([4]; Day 9, 48 hours after infestation, Table 10 soft chew): 98.7% | Percent efficacy versus untreated control group ([4]; Day 16, 48 hours after infestation, Table 10 soft chew): 99.4% | Percent efficacy versus untreated control group ([4]; Day 23, 48 hours after infestation, Table 10 soft chew): 91.7% | Percent efficacy versus untreated control group ([4]; Day 38, Table 10 soft chew): 89.7% | Duration of excellent control of Amblyomma americanum ([4]; Table 10 soft chew): > 30 days
